In brackets after ≈: the same amount, converted by molar mass. Read-outs that look alike come from different tables or passages of the source.
Tests used:
E. faecium = test: MIC, broth microdilution; type: cell-based, Enterococcus faecium; conditions: for MIC: Enterococcus faecium; for susceptibility of E. faecium: result in words
Summary of the method: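 MIC by CLSI broth microdilution (M07-A8) in MH broth; E. aerogenes, K. pneumoniae and A. baumannii pre-grown in LB, E. faecium in BHI, at 37° C. Inoculum at initial OD600 0.03, incubated 18 hrs at 35° C., growth read as absorbance at 595 nm.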

E. faecalis = test: MIC, broth microdilution; type: cell-based, Enterococcus faecalis; conditions: for MIC: Enterococcus faecalis, E. faecalis, (range given for E. faecium and E. faecalis); for susceptibility of E. faecalis: result in words
Method: To test the bacterial MICs for compounds described herein, the total volume in each well was 100 μl of test compounds and bacterial cells in MH broth. Two-fold serial dilutions were carried out to get compounds in the concentration range 0.0625-64 μg/ml. The bacterial concentration was adjusted to an initial OD600 of 0.03. After incubation at 35° C. for 18 hrs, the absorbance was measured at 595 nm in accordance with CLSI document M07-A8. The MICs of antibiotics were determined by the standard microdilution method recommended by the Clinical and Laboratory Standards Institute.

[1] = system: Exponential-phase MRSA cells; test: Killing kinetics assay; type: cell-based, Staphylococcus aureus; conditions: 10×MIC, result in words
Method: Killing kinetics assay. An S. aureus overnight culture was diluted 1:10,000 in 25 ml fresh TSB in a 250 ml flask. In order to obtain exponential-phase cells, the diluted cell suspension was incubated at 37° C., with shaking at 225 rpm for 4 h until the OD600 nm was 0.4 (˜2×10^7 CFU/ml). 0.5 ml of the exponential phase cell culture was added to the wells of a 2 ml deep well assay block (Corning Costar 3960) containing 0.5 ml of pre-warmed TSB with twice the desired concentrations of compounds. The assay block was sealed with a gas-permeable Breathe-Easy membrane and incubated at 37° C. shaking at 225 rpm. At specific times, 50 μl samples were removed, serially diluted and spot-plated onto tryptic soy agar (TSA, BD) plates to enumerate the number of cells. These experiments were conducted in triplicate.
Colony forming unit counts of cells were measured by serial dilution and plating on TSA plates. The data points on the x-axis are below the level of detection (2×10^2 CFU/mL). Results are shown as means±s.d.; n=3.

[2] = system: Salmonella typhimurium strains TA 1535 and TA 1538; conditions: for genotoxic potential: Ames test, result in words
Method: The Ames test was conducted using histidine auxotroph Salmonella typhimurium strains TA 1535 and TA 1538. To test mutagenic potential of the synthetic retinoids themselves and their metabolic products, the assay was conducted both with and without rat liver S9 fraction (Moltox, Boone, N.C., USA). Briefly, 100 μl of bacterial overnight cultures was added into 500 μl of phosphate buffer containing a range of amounts of the retinoids dissolved in 10 μl DMSO and with or without 4% S9. After incubation at 37° C. for 1 h, the samples were added into 2 ml of soft agar including 0.5 mM of histidine/biotin, mixed, and poured onto minimal glucose agar plates. The plates were incubated at 37° C. for 48 h, and the revertant colonies were counted. 10 μl DMSO was used as a negative control. […] 5 μg/plate 2-aminoanthracene was used as a positive control for both strains in the metabolic activation system. The test was performed in triplicate.

S. aureus MW2 = type: cell-based, Staphylococcus aureus; conditions: for fold increase in resistance: mutations in graS, yjbH, and manA; for fold increased resistance of CD437-resistant mutants: presumptive CD437-resistant SP1/SP2 mutants
Method: Development of resistant mutants by serial passage was conducted as previously described (Friedman, L. et al. Genetic changes that correlate with reduced susceptibility to daptomycin in Staphylococcus aureus. Antimicrob. Agents Chemother. 2006, 50, 2137-2145). […] The extended gradient was created by 2-fold serial dilutions with cation-adjusted Muller-Hinton media (CaMH) from three different starting concentrations: 80, 96, and 128 μg/ml. […] After incubating the plate at 37° C. for 24 h, OD600 nm was measured by a spectrophotometer (SpectraMax M2, Molecular Devices). Bacterial growth was defined as OD600 nm≥0.1. Two μl of the bacterial culture at the highest drug concentration that permitted bacterial growth was diluted 1,000-fold in CaMH, and the diluted culture was used as inoculum for the next passage. The rest of the culture was stored in 16% glycerol at −80° C.
Sequencing of PCR products were conducted by GENEWIZ (South Plainfield, N.J., USA). The passage day when the mutations occurred was identified by colony PCR using three colonies from each glycerol freezer stock, followed by sequencing of the PCR products. The passage day when the susceptibility to the retinoids changed was identified by repeating MIC determinations using overnight cultures from three colonies from each glycerol freezer stock.

[3] = E. faecium D24, read-out: Minimum inhibitory concentration
[4] = E. faecium D25, read-out: Minimum inhibitory concentration
[5] = E. faecium D29, read-out: Minimum inhibitory concentration
[6] = E. faecium WB213, read-out: Minimum inhibitory concentration
[7] = E. faecium C68, read-out: Minimum inhibitory concentration
[8] = E. faecium D14, read-out: Minimum inhibitory concentration
[9] = E. faecium E007, read-out: Minimum inhibitory concentration
[10] = E. faecium WC176, read-out: Minimum inhibitory concentration

Q: Which results are given for `O=C(O)c1ccc2cc(-c3ccc(O)c(C45CC6CC(CC(C6)C4)C5)c3)ccc2c1` [CD437, 6-(4-hydroxy-3-tricyclo[3.3.1.13,7]dec-1-ylphenyl)-2-naphthalenecarboxylic acid]?
A: MIC (E. faecium; [3]): 1 mg/L (≈ 2.51 µM); MIC (E. faecium; [4]): 1 mg/L (≈ 2.51 µM); MIC (E. faecium; [5]): 1 mg/L (≈ 2.51 µM); MIC (E. faecium; [6]): 1 mg/L (≈ 2.51 µM); susceptibility of E. faecium (E. faecium): susceptible; MIC (E. faecalis): 2 to 4 mg/L (≈ 5.02 to 10 µM); susceptibility of E. faecalis (E. faecalis): susceptible; killing kinetics [1]: fast killing kinetics; genotoxic potential [2]: did not show significant genotoxic potential; Number of revertants (T1535) ([2]; With S9, 5 μg/plate): 6 ± 3; Number of revertants (T1538) ([2]; With S9, 5 μg/plate): 9 ± 3; Number of revertants (T1535) ([2]; With S9, 25 μg/plate): 8 ± 3; Number of revertants (T1538) ([2]; With S9, 25 μg/plate): 10 ± 2; Number of revertants (T1535) ([2]; With S9, 100 μg/plate): 8 ± 3; Number of revertants (T1538) ([2]; With S9, 100 μg/plate): 6 ± 1; Number of revertants (T1535) ([2]; Without S9, 5 μg/plate): 6 ± 2; Number of revertants (T1538) ([2]; Without S9, 5 μg/plate): 5 ± 2; Number of revertants (T1535) ([2]; Without S9, 25 μg/plate): 5 ± 2; Number of revertants (T1538) ([2]; Without S9, 25 μg/plate): 4 ± 1; Number of revertants (T1535) ([2]; Without S9, 100 μg/plate): 8 ± 2; Number of revertants (T1538) ([2]; Without S9, 100 μg/plate): 3 ± 3

Q: What does the source list for `O=C(O)c1ccc(-c2ccc3cc(O)c(C45CC6CC(CC(C6)C4)C5)cc3c2)cc1` [CD1530, 4-(6-hydroxy-7-tricyclo[3.3.1.13,7]dec-1-yl-2-naphthalenyl)-benzoic acid]?
A: MIC (E. faecium; [7]): 2 mg/L (≈ 5.02 µM); MIC (E. faecium; [8]): 2 mg/L (≈ 5.02 µM); MIC (E. faecium; [3]): 1 mg/L (≈ 2.51 µM); MIC (E. faecium; [4]): 1 mg/L (≈ 2.51 µM); MIC (E. faecium; [5]): 1 mg/L (≈ 2.51 µM); MIC (E. faecium; [9]): 2 mg/L (≈ 5.02 µM); MIC (E. faecium; [6]): 1 mg/L (≈ 2.51 µM); MIC (E. faecium; [10]): 2 mg/L (≈ 5.02 µM); MIC (E. faecium; E. faecium, (range given for E. faecium and E. faecalis), read-out: MIC): 2 to 4 mg/L (≈ 5.02 to 10 µM); susceptibility of E. faecium (E. faecium): susceptible; MIC (E. faecalis): 2 to 4 mg/L (≈ 5.02 to 10 µM); susceptibility of E. faecalis (E. faecalis): susceptible; killing kinetics [1]: fast killing kinetics; fold increase in resistance (S. aureus MW2): 1.5 fold; fold increased resistance of CD437-resistant mutants (S. aureus MW2): 2 fold; genotoxic potential [2]: did not show significant genotoxic potential; Number of revertants (T1535) ([2]; With S9, 5 μg/plate): 7 ± 3; Number of revertants (T1538) ([2]; With S9, 5 μg/plate): 7 ± 3; Number of revertants (T1535) ([2]; With S9, 25 μg/plate): 7 ± 2; Number of revertants (T1538) ([2]; With S9, 25 μg/plate): 10 ± 4; Number of revertants (T1535) ([2]; With S9, 100 μg/plate): 8 ± 2; Number of revertants (T1538) ([2]; With S9, 100 μg/plate): 8 ± 2; Number of revertants (T1535) ([2]; Without S9, 5 μg/plate): 7 ± 3; Number of revertants (T1538) ([2]; Without S9, 5 μg/plate): 3 ± 3; Number of revertants (T1535) ([2]; Without S9, 25 μg/plate): 7 ± 2; Number of revertants (T1538) ([2]; Without S9, 25 μg/plate): 4 ± 2; Number of revertants (T1535) ([2]; Without S9, 100 μg/plate): 8 ± 4; Number of revertants (T1538) ([2]; Without S9, 100 μg/plate): 4 ± 2

Q: How did the MIC (E. faecium; [7]) turn out when `O=C(O)/C=C/c1ccc(-c2ccc(O)c(C34CC5CC(CC(C5)C3)C4)c2)cc1` [Adarotene, (2E)-3-(4′-Hydroxy-3′-tricyclo[3.3.1.13,7]dec-1-yl[1,1′-biphenyl]-4-yl)-2-propenoic acid] was run?
A: 4 mg/L (≈ 10.7 µM)

Q: And the MIC (E. faecium; [8])?
A: 4 mg/L (≈ 10.7 µM)

Q: What about the MIC (E. faecium; [3]) of the same compound?
A: 2 mg/L (≈ 5.34 µM)

Q: And the MIC (E. faecium; [4])?
A: 4 mg/L (≈ 10.7 µM)

Q: What about the MIC (E. faecium; [5]) of the same compound?
A: 2 mg/L (≈ 5.34 µM)

Q: What about the MIC (E. faecium; [9]) of the same compound?
A: 4 mg/L (≈ 10.7 µM)

Q: What about the MIC (E. faecium; [6]) of the same compound?
A: 2 mg/L (≈ 5.34 µM)

Q: What about the MIC (E. faecium; [10]) of the same compound?
A: 4 mg/L (≈ 10.7 µM)

Q: And the killing kinetics [1]?
A: fast killing kinetics

Q: What about the “fold increase in resistance” value (S. aureus MW2) of the same compound?
A: 1.5 fold

Q: And the “fold increased resistance of CD437-resistant mutants” value (S. aureus MW2)?
A: 2 fold

Q: And the genotoxic potential [2]?
A: did not show significant genotoxic potential

Q: What about the “Number of revertants (T1535)” value ([2]; With S9, 5 μg/plate) of the same compound?
A: 6 ± 2

Q: What about the “Number of revertants (T1538)” value ([2]; With S9, 5 μg/plate) of the same compound?
A: 8 ± 4

Q: What about the “Number of revertants (T1535)” value ([2]; With S9, 25 μg/plate) of the same compound?
A: 7 ± 3

Q: What about the “Number of revertants (T1538)” value ([2]; With S9, 25 μg/plate) of the same compound?
A: 8 ± 1

Q: And the “Number of revertants (T1535)” value ([2]; With S9, 100 μg/plate)?
A: 7 ± 1

Q: What about the “Number of revertants (T1538)” value ([2]; With S9, 100 μg/plate) of the same compound?
A: 7 ± 3

Q: What about the “Number of revertants (T1535)” value ([2]; Without S9, 5 μg/plate) of the same compound?
A: 6 ± 1

Q: What about the “Number of revertants (T1538)” value ([2]; Without S9, 5 μg/plate) of the same compound?
A: 6 ± 1

Q: And the “Number of revertants (T1535)” value ([2]; Without S9, 25 μg/plate)?
A: 7 ± 3

Q: What about the “Number of revertants (T1538)” value ([2]; Without S9, 25 μg/plate) of the same compound?
A: 4 ± 3

Q: What about the “Number of revertants (T1535)” value ([2]; Without S9, 100 μg/plate) of the same compound?
A: 6 ± 2

Q: And the “Number of revertants (T1538)” value ([2]; Without S9, 100 μg/plate)?
A: 5 ± 2

Source: patent publication US11707442B2, “Antibacterial and antifungal compounds” (The General Hospital Corporation, priority 2015, dated 2023)
